{
  "source": "a melting point compilation (Tetko et al.; mined from patent text by program, amines drawn as free bases though some values may be those of a salt)",
  "data": [
    {"units": {"melting point": "°C"}, "values": [
      {"smiles": "COc1cc(-c2nc3ccccc3[nH]2)cc([N+](=O)[O-])c1O", "melting point": "198 to 200"},
      {"smiles": "CC(=O)OCC(O)(COC(C)=O)c1ccc(F)cc1F", "melting point": "70.5 to 71.5"},
      {"smiles": "O=c1cc(CCCl)c2ccccc2[nH]1", "melting point": "186 to 187"},
      {"smiles": "CCCCCCNC(=O)n1nc(Oc2c(Cl)cc(C(F)(F)F)cc2Cl)c(Cl)c1C", "melting point": "86 to 88"},
      {"smiles": "COc1ccc(C(=O)Nc2c(Cl)cncc2Cl)c2c1[nH]c1ccc(Cl)cc12", "melting point": "> 359"},
      {"smiles": "COc1ccc2c(c1)CC(O)C2", "note": "(centres undefined)", "melting point": "67 to 69"},
      {"smiles": "COC(=O)c1ccc(C)c(-n2c(C)cc(OCc3ccccc3CNC(=O)Nc3cc(C(C)(C)C)nn3-c3ccc(Cl)c(O)c3)c(Cl)c2=O)c1", "melting point": "193 to 195"},
      {"smiles": "CC12CCC1C(=O)OC2=O", "note": "(centres undefined)", "melting point": "59 to 60"},
      {"smiles": "CN(C)c1c(CS(=O)(=O)C2=NOC(C)(C)C2)c(C(F)(F)F)nn1-c1ccccc1", "melting point": "150 to 151"},
      {"smiles": "Cc1cn(C(C)(C)C(=O)N(C)c2ccccc2)nc1-c1ccccc1", "melting point": "152 to 154"},
      {"smiles": "COc1ccc(CNc2n[nH]c3ncnc(Nc4cccc(Cl)c4)c23)cc1Cl", "melting point": "205 to 208"},
      {"smiles": "Cc1n[nH]c2cc(-c3nn(C(C)c4oc5ccccc5c(=O)c4-c4ccccc4)c4ncnc(N)c34)ccc12", "note": "(centres undefined)", "melting point": "249 to 252"},
      {"smiles": "CN(C(=O)Cl)c1ccc2c(c1)OCO2", "melting point": "71 to 73"},
      {"smiles": "CCOC(=O)COc1ccc(S(=O)(=O)c2ccc(C)nc2Nc2c(C)cc(C)cc2C)cc1", "melting point": "116 to 118"},
      {"smiles": "CC(=O)n1ccc(N2CCCC2)c1C(=O)c1cccnc1Nc1cccc(Cl)c1", "melting point": "170 to 173"},
      {"smiles": "Cc1c(C)c(N2CCN(c3ccccc3)CC2)c(C)c2c1OC(C)(C)C2O", "note": "(centres undefined)", "melting point": "142 to 144"},
      {"smiles": "O=C1C=CC(=O)c2cc(C(F)(F)F)ccc21", "melting point": "80 to 85"},
      {"smiles": "CCCCCCCCCCC[C@@H](O)CC(=O)OC", "melting point": "42 to 43"},
      {"smiles": "OCCCc1cc(Cl)cc2nc(Cc3cccc(Cl)c3)oc12", "melting point": "87 to 89"},
      {"smiles": "CC(C)Cn1cnc2c(N)nc3ccc(CCCN4CCCC4=O)cc3c21", "melting point": "174 to 175"},
      {"smiles": "C#CCc1c(C)nc2c(OCc3c(C)cccc3NC(=O)OC)cccn12", "melting point": "179 to 180"},
      {"smiles": "Cc1nc(C)c(-c2ccnc(Nc3cccc(S(=O)(=O)NCCO)c3)n2)s1", "melting point": "184 to 186"},
      {"smiles": "Cc1ccc(NC(C)CC(=O)NC(=O)OC(C)(C)C)cc1", "note": "(centres undefined)", "melting point": "84 to 85"},
      {"smiles": "CCNC(=O)Nc1ccc2c(c1)C(=O)N(CCO[N+](=O)[O-])CO2", "melting point": "142 to 144"},
      {"smiles": "CC[C@@H](O)CC(=O)N[C@H]1CC[C@H](CCN2CCN(c3nccc4c3OCC4)CC2)CC1", "melting point": 146},
      {"smiles": "Cc1c(C(=O)Nc2ccc(N3CCC(N(CCO)CCO)CC3)c(C#N)c2)cnn1-c1ccc(Cl)cc1", "melting point": "230 to 233"},
      {"smiles": "Cn1ccnc1Sc1ccc(Nc2c(C#N)cnc3cc(/C=C/CCN4CCCCC4)ccc23)cc1Cl", "melting point": "205 to 210"},
      {"smiles": "O=C1CCC(=O)N1Cc1nc2sc3c(c2c(-c2ccc(Cl)cc2)c1Cl)CCNC3", "melting point": "230 to 231"},
      {"smiles": "COc1cc(-c2nc3cc(F)ccc3s2)ccc1OC(=O)N1CCOCC1", "melting point": 126},
      {"smiles": "CNc1cnc2ccc(Cl)cc2c1-c1ccccc1", "melting point": "139 to 140"},
      {"smiles": "OCC1OC(Sc2ccccc2)C(OCc2ccccc2)C(OCc2ccccc2)C1OCc1ccccc1", "note": "(centres undefined)", "melting point": "127 to 129"},
      {"smiles": "CCCCOc1cc(C=C(C)C(=O)O)ccc1-c1cccc(CNCC(=O)c2ccccc2)c1", "melting point": 166},
      {"smiles": "COC(=O)C1=C(N(c2ccccc2)c2ccccc2)CC(C(=O)OC)=C(N(c2ccccc2)c2ccccc2)C1", "melting point": "236 to 238"},
      {"smiles": "CC(C)(Oc1ccc(Cl)cc1)C(=O)N1[C@@H](C(=O)O)C(C)(C)S[C@H]1c1ccccc1", "melting point": "177 to 181"},
      {"smiles": "CSc1ccc(/C(=C/CO)c2ccc(I)cc2)cc1", "melting point": "91 to 95"},
      {"smiles": "O=c1c2ccccc2ccc2cc(F)ccc12", "melting point": "119 to 123"},
      {"smiles": "CC1(C)C(=O)N(c2ccc(C#N)c(C(F)(F)F)c2)C(=O)N1Cc1ccccc1Br", "melting point": "56 to 58"},
      {"smiles": "O=C1C(c2cccc(Br)c2)n2cncc2CN1Cc1ccncc1", "note": "(centres undefined)", "melting point": "50 to 54"},
      {"smiles": "Fc1ccc2nc(S)sc2c1", "melting point": "224 to 226"},
      {"smiles": "Clc1ccc2ncn3cnnc3c2c1", "melting point": "179 to 182"},
      {"smiles": "CC(C)(C)NS(=O)(=O)c1ccccc1-c1ccccn1", "melting point": "147 to 150"},
      {"smiles": "Cc1nc(CO)sc1-c1ccnc(Nc2ccc(N3CCCCC3)cc2)n1", "melting point": "194 to 195"},
      {"smiles": "CN(C)C(=O)Sc1ccc(CC#N)cc1", "melting point": "97 to 99"},
      {"smiles": "NC=C1Cc2ccccc2C1=O", "melting point": "163 to 165"},
      {"smiles": "CC(C)C(NC(=O)OCc1csc(N2CCCC2)n1)C(=O)NC(Cc1ccccc1)CC(O)C(Cc1ccccc1)NC(=O)OCc1cncs1", "note": "(centres undefined)", "melting point": "146 to 148"},
      {"smiles": "CC(C)n1nc(-c2sc(NC(=O)c3ccc(CN(C)CCc4ccccn4)cc3)nc2-c2ccccc2)ccc1=O", "melting point": "172 to 174"},
      {"smiles": "Nc1nc(NCc2ccccc2)nc(C(F)(F)F)n1", "melting point": "183 to 185"},
      {"smiles": "CC(CC1CCNCC1)c1c[nH]c2ccccc12", "note": "(centres undefined)", "melting point": 125},
      {"smiles": "COc1cc2cc(CO)nc(-c3ccnc(NN)c3)c2cc1OC", "melting point": "157 to 159"},
      {"smiles": "COC(=O)c1coc2cc(Oc3ccnc(N)n3)ccc12", "melting point": "194 to 196"},
      {"smiles": "CC1CCCCN1CCCNC(=O)c1ccccc1C(c1ccc(O)cc1)c1ccc(O)cc1", "note": "(centres undefined)", "melting point": "118 to 120"},
      {"smiles": "Cc1cc2c(c(Cc3c[nH]cn3)c1)OC(C)(C)OC2", "melting point": "152 to 155"},
      {"smiles": "COc1c(N2CCC(NC(=O)OCc3ccccc3)C(C)(C)C2)c(F)cc2c(=O)c(C(=O)O)cn(C3CC3)c12", "note": "(centres undefined)", "melting point": "158 to 160"},
      {"smiles": "Cc1nc2sccn2c(=O)c1CCN1CCC(=C(c2ccc(F)cc2)c2ccc(F)cc2)CC1", "melting point": 146},
      {"smiles": "CCCc1c(SC(=O)N(C)C)ccc2c(=O)cc(C(=O)OCC)oc12", "melting point": "113 to 114"},
      {"smiles": "COC(=O)C1=CC=C(CC2=CCc3ccc(NC(=O)C(F)(F)F)cc32)C(OC)(OC)C1", "melting point": "198 to 200"},
      {"smiles": "C#CC1(OC(=O)c2ccccc2)C(COC(=O)c2ccc(Cl)cc2)OC(n2ccc(=O)[nH]c2=O)C1OC(=O)c1ccccc1", "note": "(centres undefined)", "melting point": "158 to 160"},
      {"smiles": "CN(C)C(=O)Cc1nc(-c2ccccc2)nc2c1c1ccc(Cl)cc1n2C", "melting point": "185 to 187"},
      {"smiles": "O=C1Nc2ccccc2NC2CCCC12", "note": "(centres undefined)", "melting point": "191 to 212"},
      {"smiles": "COc1ccccc1C1(O)C(O)CC(c2ccccc2)(c2ccccc2)C2CN(C(=O)Cc3ccccc3OCc3ccccc3)CC21", "note": "(centres undefined)", "melting point": 158},
      {"smiles": "CCOC(=O)C(Cc1ccc(OCCc2nc(-c3ccccc3)oc2C)cc1)C(=O)OCC", "melting point": "69.8 to 70.5"},
      {"smiles": "CCOC(=O)c1c(-c2ccccc2)nc(Cl)n1C", "melting point": "54 to 55"},
      {"smiles": "COc1cc(C(=O)c2nccn2C)cc([N+](=O)[O-])c1OC", "melting point": "144 to 145"},
      {"smiles": "Cc1ccc2[nH]c3ccc(C)cc3c2c1", "melting point": "218 to 221"},
      {"smiles": "COc1cccnc1CSCCNC(=C[N+](=O)[O-])SC", "melting point": "87.5 to 88.5"},
      {"smiles": "CCOC(=O)N1CCc2c([nH]c3ccc(Cl)cc23)C1C1(C(N)=O)CCC1", "note": "(centres undefined)", "melting point": "200 to 220"},
      {"smiles": "CCCCOCCOc1ccc(-c2ccc3c(c2)C=C(C(=O)Nc2ccc(C(O)c4cc(C)ccn4)cc2)CCN3C(=O)C(F)(F)F)cc1", "note": "(centres undefined)", "melting point": "101 to 105"},
      {"smiles": "Cc1ccc(-c2ccc(C(=O)Nc3ccc4cc(CN5CCCC5)cnc4c3C)cc2)cc1", "melting point": "177 to 179"},
      {"smiles": "CCS(=O)(=O)c1nsc(NC(=O)NC)c1C#N", "melting point": 258}
    ]}
  ]
}
